Measured values: patent US20110245323A1, “RIG-Like Helicase Innate Immunity Inhibits VEGF-Induced Tissue Responses” (Yale University, priority 2006, published 2011)

Columns and labels:
[1] = test system: CC10-rtTA-VEGF165 transgenic mice; assay: VEGF-induced angiogenesis, anti-CD31 immunohistochemistry and vessel area density; format: in vivo, mouse; details: for Vascularity (%): VEGF-induced tissue responses, TLR agonist administration, PBS control 43
Protocol: (§1) The CC10-rtTA-VEGF165 transgenic mice used in this study were generated and used as described previously (Lee et al., 2004, Nature Medicine 10:1095-103), which reference is incorporated herein in its entirety. These animals were housed under barrier conditions in the animal facility at Yale University School of Medicine. In these experiments 6-8 week old transgenic (Tg+) animals and their transgene negative littermate controls (Tg−) were randomized to receive water with doxycycline (dox) (0.5 mg/ml) or normal water. Two weeks later they were sacrificed and the VEGF-induced phenotype was evaluated as described below (Lee et al., 2004, Nature Medicine 10:1095-103).
(§2) To define the effects of these agents on the tissue responses induced by VEGF, two experimental procedures were used. In the first, a pretreatment protocol was used. In these experiments the noted innate immunity agonist ([…] unless otherwise indicated) or its vehicle control (PBS) were administered intranasally and aspirated into the lungs of randomized Tg+ and Tg− mice starting one day before the Dox water treatment. The doses were administered to the mice every other day during the 2 week doxyxycline (dox) treatment interval.
(§3) To determine if the innate immunity agonists altered established VEGF-induced tissue responses, a “post treatment” protocol was used in selected experiments. In these experiments the innate immunity agonist was administered 2 days or 14 days after the doxycycline and VEGF-induced responses were evaluated 2 weeks later.
(§4) To define the effects of Poly(I:C) a number of protocols were employed. In most experiments, a pretreatment-2 week protocol was employed. In these experiments, WT and Tg+ mice were treated with Poly(I:C) (30 μg in 50 lambda unless otherwise indicated; Amersham Biosciences, N.J.) or vehicle control via nasal aspiration and transgene activation was accomplished via the administration of dox (0.5 mg/ml) in the animal's drinking water 24 hours later. The Poly(I:C) was administered every other day and the dox was administered continuously for up to 2 weeks.
In selected experiments a pretreatment protocol and shorter treatment interval was employed. In these experiments, WT and Tg+ mice were treated with Poly(I:C) (30 μg/mouse/dose in 50 μl) or vehicle control via nasal aspiration and transgene activation was accomplished with dox 24 hours later. The animals were then randomized to not receive or receive one additional dose of Poly(I:C) 24 hours later and dox was administered continuously during this 2 week interval.
(§5) Lastly, in selected experiments post-transgene activation protocols were employed. In these experiments dox was administered for 2 days or 2 weeks. The Poly(I:C) was then administered via intranasal aspiration every other day for 2 weeks as disclosed elsewhere herein. In selected pre-treatment and post-transgene activation experiments, unmethylated CpG (CpG-B) (Keck Center, Yale University) was also employed at similar doses. At the end of these intervals, assessments of angiogenesis (anti-CD31 immunohistochemistry), vascular permeability (Evan's blue dye extravasation, wet to dry lung weight measurements, BAL protein concentration), BAL and tissue inflammatory cell infiltration and mucus metaplasia (periodic acid-Schiff (PAS) staining, MUC5AC immunoblotting) were undertaken. In all cases experiments were designed to compare Tg− and Tg+ mice on normal water and Tg− and Tg+ mice on dox water.

[2] = test system: CC10-rtTA-VEGF165 transgenic mice; assay: BAL inflammatory cell recovery, VEGF-induced inflammation; format: in vivo, mouse; details: for Total cells (×10^4): VEGF-induced tissue responses, TLR agonist administration, PBS control 50
Protocol: as §1, §2, §3, §4, §5
(§6) Mice were sacrificed using intraperitoneal ketamine/xylazine injection and the trachea was cannulated and perfused with two 0.9 nil aliquots of cold saline. The cellular contents and BAL fluid were separated by centrifugation, the BAL cell number was quantitated and cell differential was assessed. The BAL fluid was stored in aliquots at −80° C.

[3] = test system: CC10-rtTA-VEGF165 transgenic mice; assay: VEGF-induced pulmonary hemorrhage in BAL fluids; format: in vivo, mouse; details: Tg+ mice, pretreatment, vs vehicle
Protocol: as §1, with “10:1095-103). […]” for “10:1095-103).”
as §6, with “The BAL fluid was stored in aliquots at −80° C.” left out
The lungs were removed en bloc as described elsewhere herein, inflated at 25 cm pressure with PBS containing 0.5% low melting point agarose gel, fixed in Streck solution (Streck Laboratories, La Vista, Nebr.), embedded in paraffin, sectioned and stained. […] Pulmonary hemorrhage was evaluated by quantitating BAL red blood cell number with a Coulter counter (Beckman Coulter).

[4] = test system: CC10-rtTA-VEGF165 transgenic mice; assay: VEGF-induced mucus metaplasia (PAS staining, BAL MUC5AC); format: in vivo, mouse; details: Tg+ mice, pretreatment, vs vehicle
Protocol: as §4, §5
The lungs were removed en bloc as described elsewhere herein, inflated at 25 cm pressure with PBS containing 0.5% low melting point agarose gel, fixed in Streck solution (Streck Laboratories, La Vista, Nebr.), embedded in paraffin, sectioned and stained. Hematoxylin and eosin and PAS stains were performed in the Research Histology Laboratory of the Department of Pathology at the Yale University School of Medicine. Pulmonary hemorrhage was evaluated by quantitating BAL red blood cell number with a Coulter counter (Beckman Coulter).
The levels of MUC5AC, the major airway mucin in BAL fluids, were assessed as previously described (Lee et al., 2008, Am J Respir Cell Mol Biol 39:739-746). In these evaluations, 0.1 ml of BAL fluid was slot blotted onto nitrocellulose membranes using a Minifold II slot blot apparatus (Schleicher & Schuell). After air-drying, the membrane was blocked with 5% skim milk, washed three times and incubated overnight at 4° C. with a monoclonal antibody against Mucin-5AC (45M1; NeoMarkers, Union City, Calif.). After washing, the membranes were incubated for 1 hour at room temperature with horseradish peroxidase-conjugated anti-mouse immunoglobulin (Ig)-G (Pierce). Immunoreactive mucins were detected using a chemiluminescent procedure (ECL Plus Western blotting detection system, Amersham Biosciences) according to instructions from the manufacturer.

human patients = details: cited from earlier work

Lipopolysaccharide [LPS]
Vascularity (%) [1]: 32.2%
Total cells (×10^4) [2]: 156 ×10^4

CCNCc1nc2c(N)nc3ccccc3c2n1CC(C)(C)O [Gardiquimod]
VEGF-induced angiogenesis (vascular density, appearance, sprouting) ([1]; Tg+ mice, pretreatment starting 1 day before dox, vs vehicle): decreased
Vascularity (%) [1]: 32.4%
VEGF-induced bleeding / hemorrhage in BAL fluids [3]: decreased
total recovery of inflammatory cells during BAL / VEGF-induced inflammation ([2]; Tg+ mice, pretreatment, vs vehicle): decreased
Total cells (×10^4) [2]: 29 ×10^4
VEGF-induced mucus metaplasia (PAS stains, BAL MUC5AC accumulation) [4]: decreased

poly-ICLC
toxicity, lower dose (human patients; 10 to 50 mcg/kg): little or no toxicity
toxicity and efficacy in human patients, high doses (human patients; 200-300 mcg/kg IV): toxic and largely ineffectual
